Patent US8802688B2, “Substituted acetyl-coa carboxylase inhibitors” (Pfizer Inc., priority 2011, dated 2014)

How the values were obtained:
[1] = target: T1, recombinant human ACC1 (rhACC1) (Homo sapiens, UniProt Q13085, DEL44-44); experiment: recombinant hACC1 Transcreener ADP detection FP assay; format: biochemical; conditions: 50 μM ATP, 30 μM acetyl-CoA
T1 construct: recombinant baculovirus containing full length human ACC1 cDNA; made in house; host or cells: SF9 insect cells, recombinant baculovirus
Procedure: (§1) For example direct inhibition of ACC activity, for the compound of Formula (I) was determined using preparations of recombinant human ACC1 (rhACC1) and recombinant human ACC2 (rhACC2). Representative sequences of the recombinant human ACC1 and ACC2 that can be used in the assay are provided herein as SEQ ID NO. 1 and SEQ. ID NO. 2, respectively.
[1] Preparation of rhACC1. Two liters of SF9 cells, infected with recombinant baculovirus containing full length human ACC1 cDNA, were suspended in ice-cold lysis buffer (25 mM Tris, pH 7.5; 150 mM NaCl; 10% glycerol; 5 mM imidazole (EMD Bioscience; Gibbstown, N.J.); 2 mM TCEP (BioVectra; Charlottetown, Canada); Benzonase nuclease (10000 U/100 g cell paste; Novagen; Madison, Wis.); EDTA-free protease inhibitor cocktail (1 tab/50 mL; Roche Diagnostics; Mannheim, Germany). Cells were lysed by 3 cycles of freeze-thaw and centrifuged at 40,000×g for 40 minutes (4° C.). Supernatant was directly loaded onto a HisTrap FF crude column (GE Healthcare; Piscataway, N.J.) and eluted with an imidazole gradient up to 0.5 M over 20 column volumes (CV). ACC1-containing fractions were pooled and diluted 1:5 with 25 mM Tris, pH 7.5, 2 mM TCEP, 10% glycerol and direct loaded onto a CaptoQ (GE Healthcare) column and eluted with an NaCl gradient up to 1 M over 20 CV's. Phosphate groups were removed from purified ACC1 by incubation with lambda phosphatase (100 U/10 μM target protein; New England Biolabs; Beverly, Mass.) for 14 hours at 4° C.; okadaic acid was added (1 μM final concentration; Roche Diagnostics) to inhibit the phosphatase. Purified ACC1 was exchanged into 25 mM Tris, pH 7.5, 2 mM TCEP, 10% glycerol, 0.5 M NaCl by 6 hour dialysis at 4° C. Aliquots were prepared and frozen at −80° C.
[2] Measurement of rhACC1 inhibition. hACC1 was assayed in a Costar #3676 (Costar, Cambridge, Mass.) 384-well plate using the Transcreener ADP detection FP assay kit (Bellbrook Labs, Madison, Wis.) using the manufacturer's recommended conditions for a 50 μM ATP reaction. The final conditions for the assay were 50 mM HEPES, pH 7.2, 10 mM MgCl2, 7.5 mM tripotassium citrate, 2 mM DTT, 0.1 mg/mL BSA, 30 μM acetyl-CoA, 50 μM ATP, and 10 mM KHCO3 Typically, a 10 μl reaction was run for 120 min at 25° C., and 10 μl of Transcreener stop and detect buffer was added and the combination incubated at room temp for an additional 1 hour. The data was acquired on a Envision Fluorescence reader (Perkinelmer) using a 620 excitation Cy5 FP general dual mirror, 620 excitation Cy5 FP filter, 688 emission (S) and a 688 (P) emission filter.
(§2) The results using the recombinant hACC1 and recombinant hACC2 Transcreener assays described above are summarized in the table below for the Compounds of Formula (I) exemplified in the Examples above.

[2] = target: T2, recombinant human ACC2 (rhACC2) (Homo sapiens, UniProt O00763, V2141I); experiment: recombinant hACC2 Transcreener ADP detection FP assay; format: biochemical; conditions: 50 μM ATP, 30 μM acetyl-CoA
T2 construct: a full length Cytomax clone of ACC2 was purchased from Cambridge Bioscience Limited; made in house; host or cells: CHO cells, tetracycline-induced (PcDNA5 FRT TO-TOPO)
Procedure: as §1
[3] Preparation of rhACC2. Human ACC2 inhibition was measured using purified recombinant human ACC2 (hrACC2). Briefly, a full length Cytomax clone of ACC2 was purchased from Cambridge Bioscience Limited and was sequenced and subcloned into PcDNA5 FRT TO-TOPO (Invitrogen, Carlsbad, Calif.). The ACC2 was expressed in CHO cells by tetracycline induction and harvested in 5 liters of DMEM/F12 with glutamine, biotin, hygromycin and blasticidin with 1 μg/mL tetracycline (Invitrogen, Carlsbad, Calif.). The conditioned medium containing ACC2 was then applied to a Softlink Soft Release Avidin column (Promega, Madison, Wis.) and eluted with 5 mM biotin. 4 mgs of ACC2 were eluted at a concentration of 0.05 mg/mL (determined by A280) with an estimated purity of 95% ([…]). The purified ACC2 was dialyzed in 50 mM Tris, 200 mM NaCl, 4 mM DTT, 2 mM EDTA, and 5% glycerol. The pooled protein was frozen and stored at −80° C., with no loss of activity upon thawing. For measurement of ACC2 activity and assessment of ACC2 inhibition, test compounds were dissolved in DMSO and added to the rhACC2 enzyme as a 5× stock with a final DMSO concentration of 1%.
[4] Measurement of human ACC2 inhibition. hACC2 was assayed in a Costar #3676 (Costar, Cambridge, Mass.) 384-well plate using the Transcreener ADP detection FP assay kit (Bellbrook Labs, Madison, Wis.) using the manufacturer's recommended conditions for a 50 uM ATP reaction. The final conditions for the assay were 50 mM HEPES, pH 7.2, 5 mM MgCl2, 5 mM tripotassium citrate, 2 mM DTT, 0.1 mg/mL BSA, 30 μM acetyl-CoA, 50 μM ATP, and 8 mM KHCO3. Typically, a 10 μl reaction was run for 50 min at 25° C., and 10 μl of Transcreener stop and detect buffer was added and the combination incubated at room temp for an additional 1 hour. The data was acquired on an Envision Fluorescence reader (Perkinelmer) using a 620 excitation Cy5 FP general dual mirror, 620 excitation Cy5 FP filter, 688 emission (S) and a 688 (P) emission filter.
as §2

T2 sequence (O00763 whole entry V2141I): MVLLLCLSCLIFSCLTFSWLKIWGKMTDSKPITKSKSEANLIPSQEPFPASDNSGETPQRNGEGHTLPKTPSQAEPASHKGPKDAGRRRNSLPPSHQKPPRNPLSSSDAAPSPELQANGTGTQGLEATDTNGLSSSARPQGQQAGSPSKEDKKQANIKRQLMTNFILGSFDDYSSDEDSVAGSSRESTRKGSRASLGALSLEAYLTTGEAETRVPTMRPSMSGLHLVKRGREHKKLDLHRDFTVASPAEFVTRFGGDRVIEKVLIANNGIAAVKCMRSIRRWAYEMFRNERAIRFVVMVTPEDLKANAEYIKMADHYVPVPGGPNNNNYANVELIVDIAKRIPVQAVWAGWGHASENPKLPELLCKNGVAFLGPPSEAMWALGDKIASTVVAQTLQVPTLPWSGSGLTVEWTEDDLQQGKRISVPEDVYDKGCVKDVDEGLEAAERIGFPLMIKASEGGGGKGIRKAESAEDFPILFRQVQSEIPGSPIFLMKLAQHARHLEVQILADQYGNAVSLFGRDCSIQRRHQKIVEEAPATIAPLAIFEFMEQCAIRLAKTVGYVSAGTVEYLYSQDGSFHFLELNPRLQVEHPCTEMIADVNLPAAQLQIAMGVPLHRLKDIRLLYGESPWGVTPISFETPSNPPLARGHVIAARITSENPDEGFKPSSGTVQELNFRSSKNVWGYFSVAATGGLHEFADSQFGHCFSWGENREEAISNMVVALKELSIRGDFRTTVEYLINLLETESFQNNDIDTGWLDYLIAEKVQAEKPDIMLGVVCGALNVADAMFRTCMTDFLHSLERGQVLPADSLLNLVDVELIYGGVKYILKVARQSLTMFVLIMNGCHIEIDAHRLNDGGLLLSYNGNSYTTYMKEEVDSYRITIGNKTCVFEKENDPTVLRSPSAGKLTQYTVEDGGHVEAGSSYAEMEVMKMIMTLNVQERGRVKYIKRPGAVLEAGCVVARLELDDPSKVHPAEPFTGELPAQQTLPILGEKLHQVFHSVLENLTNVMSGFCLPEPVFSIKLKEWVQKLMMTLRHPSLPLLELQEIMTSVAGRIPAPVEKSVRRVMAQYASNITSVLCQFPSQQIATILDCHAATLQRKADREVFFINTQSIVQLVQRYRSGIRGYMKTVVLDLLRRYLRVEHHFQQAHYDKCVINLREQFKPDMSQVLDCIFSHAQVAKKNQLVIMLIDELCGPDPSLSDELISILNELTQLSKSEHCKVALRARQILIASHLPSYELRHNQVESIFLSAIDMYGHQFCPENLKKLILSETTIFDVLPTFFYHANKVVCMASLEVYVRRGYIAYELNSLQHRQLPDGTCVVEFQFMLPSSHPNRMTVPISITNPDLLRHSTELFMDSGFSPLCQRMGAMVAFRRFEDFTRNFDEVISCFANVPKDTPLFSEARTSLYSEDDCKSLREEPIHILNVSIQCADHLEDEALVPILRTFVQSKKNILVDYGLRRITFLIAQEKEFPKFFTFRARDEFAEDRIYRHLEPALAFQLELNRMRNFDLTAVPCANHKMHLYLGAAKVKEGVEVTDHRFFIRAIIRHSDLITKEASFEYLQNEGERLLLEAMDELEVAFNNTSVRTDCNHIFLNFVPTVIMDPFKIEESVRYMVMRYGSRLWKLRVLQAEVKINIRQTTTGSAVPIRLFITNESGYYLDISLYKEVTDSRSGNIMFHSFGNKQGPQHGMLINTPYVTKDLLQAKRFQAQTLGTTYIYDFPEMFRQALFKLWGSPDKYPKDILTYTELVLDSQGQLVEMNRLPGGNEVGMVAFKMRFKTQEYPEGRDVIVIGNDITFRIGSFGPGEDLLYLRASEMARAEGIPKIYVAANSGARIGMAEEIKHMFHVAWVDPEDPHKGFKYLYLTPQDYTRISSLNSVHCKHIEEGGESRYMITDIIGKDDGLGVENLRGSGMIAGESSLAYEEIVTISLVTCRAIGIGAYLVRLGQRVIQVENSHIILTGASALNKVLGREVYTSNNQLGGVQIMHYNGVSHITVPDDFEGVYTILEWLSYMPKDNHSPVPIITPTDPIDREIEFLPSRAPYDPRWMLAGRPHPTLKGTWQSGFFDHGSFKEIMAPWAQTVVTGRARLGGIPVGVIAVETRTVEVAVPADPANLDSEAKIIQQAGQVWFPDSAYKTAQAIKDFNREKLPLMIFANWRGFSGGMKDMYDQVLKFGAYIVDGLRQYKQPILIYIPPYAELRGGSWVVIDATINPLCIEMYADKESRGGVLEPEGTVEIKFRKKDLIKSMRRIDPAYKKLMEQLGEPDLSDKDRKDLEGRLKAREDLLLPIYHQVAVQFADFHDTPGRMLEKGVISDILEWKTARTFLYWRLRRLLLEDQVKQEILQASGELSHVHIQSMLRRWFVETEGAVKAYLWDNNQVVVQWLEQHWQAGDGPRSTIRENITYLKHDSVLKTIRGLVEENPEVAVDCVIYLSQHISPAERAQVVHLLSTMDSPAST

## CC(C)(C)n1cc2c(n1)C(=O)CC1(CCN(C(=O)c3ccc4[nH]c(N)nc4c3)CC1)C2 [Example 35]
[1]
  IC50: 12 nM
[2]
  IC50: 1.4 nM

## CC(C)n1ncc2c1C(=O)CC1(CCN(C(=O)c3ccc4[nH]nc(C(=O)NCC(F)(F)F)c4c3)CC1)C2 [Example 11]
[1]
  IC50: 14 nM
[2]
  IC50: 5.5 nM

## CCNC(=O)c1n[nH]c2ccc(C(=O)N3CCC4(CC3)CC(=O)c3c(cnn3C(C)C)C4)cc12 [Example 10]
[1]
  IC50: 6.1 nM
[2]
  IC50: 2.7 nM

## CC(C)n1ncc2c1C(=O)CC1(CCN(C(=O)c3ccc4cc(C(N)=O)[nH]c4c3)CC1)C2 [Example 12]
[1]
  IC50: 13 nM
[2]
  IC50: 3 nM

## CNc1nc2cc(C(=O)N3CCC4(CC3)CC(=O)c3nn(C(C)(C)C)cc3C4)ccc2[nH]1 [Example 39]
[1]
  IC50: 9.8 nM
[2]
  IC50: 1.5 nM

## CC(C)(C)n1cc2c(n1)C(=O)CC1(CCN(C(=O)c3cnc4c(C(N)=O)c[nH]c4c3)CC1)C2 [Example 45, 6-[(2-tert-butyl-7-oxo-2,4,6,7-tetrahydro-1′H-spiro[indazole-5,4′-piperidin]-1′-yl)carbonyl]-1H-pyrrolo[3,2-b]pyridine-3-carboxamide]
[1]
  IC50: 23 nM
[2]
  IC50: 2.8 nM

## CC(C)(C)n1cc2c(n1)C(=O)CC1(CCN(C(=O)c3cnc4ccc(OCC(N)=O)cc4c3)CC1)C2 [Example 46, 2-({3-[(2-tert-butyl-7-oxo-2,4,6,7-tetrahydro-1′H-spiro[indazole-5,4′-piperidin]-1′-yl)carbonyl]quinolin-6-yl}oxy)acetamide]
[1]
  IC50: 14 nM
[2]
  IC50: 3.8 nM

## CNC(=O)c1n[nH]c2ccc(C(=O)N3CCC4(CC3)CC(=O)c3c(cnn3C(C)C)C4)cc12 [Example 9]
[1]
  IC50: 8.4 nM
[2]
  IC50: 2.9 nM

## NC(=O)c1n[nH]c2ccc(C(=O)N3CCC4(CC3)CC(=O)c3c(cnn3C35CC(C3)C5)C4)cc12 [Example 49, 5-[(1-bicyclo[1.1.1]pent-1-yl-7-oxo-1,4,6,7-tetrahydro-1′H-spiro[indazole-5,4′-piperidin]-1′-yl)carbonyl]-1H-indazole-3-carboxamide]
[1]
  IC50: 12 nM
[2]
  IC50: 8.4 nM

## COc1cc2cc(C(=O)N3CCC4(CC3)CC(=O)c3c(cnn3C(C)C)C4)cnc2cc1C(N)=O [Example 22, 3-[(1-isopropyl-7-oxo-1,4,6,7-tetrahydro-1′H-spiro[indazole-5,4′-piperidin]-1′-yl)carbonyl]-6-methoxyquinoline-7-carboxamide]
[1]
  IC50: 30 nM
[2]
  IC50: 6.9 nM

## CC(C)n1ncc2c1C(=O)CC1(CCN(C(=O)c3ccc4[nH]cc(C(N)=O)c4c3)CC1)C2 [Example 7]
[1]
  IC50: 5.6 nM
[2]
  IC50: 1.6 nM

## CC(C)n1ncc2c1C(=O)CC1(CCN(C(=O)c3cnc4c(C#N)c[nH]c4c3)CC1)C2 [Example 23, 6-[(1-isopropyl-7-oxo-1,4,6,7-tetrahydro-1′H-spiro[indazole-5,4′-piperidin]-1′-yl)carbonyl]-1H-pyrrolo[3,2-b]pyridine-3-carbonitrile]
[1]
  IC50: 32 nM
[2]
  IC50: 15 nM

## CC(C)n1ncc2c1C(=O)CC1(CCN(C(=O)c3ccc4[nH]nc(C(N)=O)c4c3)CC1)C2 [Example 2, 5-[(1-isopropyl-7-oxo-1,4,6,7-tetrahydro-1′H-spiro[indazole-5,4′-piperidin]-1′-yl)carbonyl]-1H-indazole-3-carboxamide]
[1]
  IC50: 7.9 nM
[2]
  IC50: 3.1 nM

## CC(C)n1ncc2c1C(=O)CC1(CCN(C(=O)c3ccc4[nH]c(C(N)=O)nc4c3)CC1)C2 [Example 21, 5-[(1-isopropyl-7-oxo-1,4,6,7-tetrahydro-1′H-spiro[indazole-5,4′-piperidin]-1′-yl)carbonyl]-1H-benzimidazole-2-carboxamide]
[1]
  IC50: 47 nM
[2]
  IC50: 6.7 nM

## CC(C)n1ncc2c1C(=O)CC1(CCN(C(=O)c3cnc4[nH]cc(C(N)=O)c4c3)CC1)C2 [Example 5]
[1]
  IC50: 17 nM
[2]
  IC50: 5.8 nM

## CC(C)n1ncc2c1C(=O)CC1(CCN(C(=O)c3cnc4c(C(N)=O)c[nH]c4c3)CC1)C2 [Example 3, 6-[(1-isopropyl-7-oxo-1,4,6,7-tetrahydro-1′H-spiro[indazole-5,4′-piperidin]-1′-yl)carbonyl]-1H-pyrrolo[3,2-b]pyridine-3-carboxamide]
[1]
  IC50: 32 nM
[2]
  IC50: 13 nM

## CC(C)n1ncc2c1C(=O)CC1(CCN(C(=O)c3ccc4ccc(N)nc4c3)CC1)C2 [Example 25, 1′-[(2-aminoquinolin-7-yl)carbonyl]-1-isopropyl-1,4-dihydrospiro[indazole-5,4′-piperidin]-7(6H)-one]
[1]
  IC50: 12 nM
[2]
  IC50: 10 nM

## CC(C)(C)n1ncc2c1C(=O)CC1(CCN(C(=O)c3ccc4[nH]nc(C(N)=O)c4c3)CC1)C2 [Example 26]
[1]
  IC50: 7.4 nM
[2]
  IC50: 2.1 nM

## CC(C)(C)n1cc2c(n1)C(=O)CC1(CCN(C(=O)c3cnc4[nH]cc(C(N)=O)c4c3)CC1)C2 [Example 30]
[1]
  IC50: 9.4 nM
[2]
  IC50: 2.6 nM

## CC(C)(C)n1cc2c(n1)C(=O)CC1(CCN(C(=O)c3ccc4ccc(N)nc4c3)CC1)C2 [Example 47, 1′-[(2-aminoquinolin-7-yl)carbonyl]-2-tert-butyl-2,4-dihydrospiro[indazole-5,4′-piperidin]-7(6H)-one]
[1]
  IC50: 5.3 nM
[2]
  IC50: 1.3 nM

## CNc1nc2cc(C(=O)N3CCC4(CC3)CC(=O)c3c(cnn3C(C)C)C4)ccc2[nH]1 [Example 20, 1-isopropyl-1′-{[2-(methylamino)-1H-benzimidazol-5-yl]carbonyl}-1,4-dihydrospiro[indazole-5,4′-piperidin]-7(6H)-one]
[1]
  IC50: 13 nM
[2]
  IC50: 3 nM

## CC(C)(C)n1cc2c(n1)C(=O)CC1(CCN(C(=O)c3ccc4c(C(N)=O)n[nH]c4c3)CC1)C2 [Example 29]
[1]
  IC50: 8.6 nM
[2]
  IC50: 1.7 nM

## CC(C)n1ncc2c1C(=O)CC1(CCN(C(=O)c3ccc4c(C#N)n[nH]c4c3)CC1)C2 [Example 17]
[1]
  IC50: 19 nM
[2]
  IC50: 11 nM

## O=C1CC2(CCN(C(=O)c3ccc4[nH]ncc4c3)CC2)Cc2cn(C34CC(C3)C4)nc21 [Example 48, 2-bicyclo[1.1.1]pent-1-yl-1′-(1H-indazol-5-ylcarbonyl)-2,4-dihydrospiro[indazole-5,4′-piperidin]-7(6H)-one]
[1]
  IC50: 32 nM
[2]
  IC50: 5.6 nM

## CC(C)(C)n1cc2c(n1)C(=O)CC1(CCN(C(=O)c3ccc4[nH]nc(C(=O)NCC(F)(F)F)c4c3)CC1)C2 [Example 38]
[1]
  IC50: 4.3 nM
[2]
  IC50: 1.1 nM
